Results on one substance are retold here after paper PMC13267291, “In vivo functional profiling and structural characterization of the human GLP1R A316T variant” (Science Advances, 2026).

The experiment concerns SNAP/FLAG-hGLP1R^A316T versus ^WT. Description: High content microscopy GLP-1R internalization assay. Conditions: INS-1 832/3 sublines; 5-60 min; AUC; n = 3; Fig. 7G. In kind it is cell-based, rat. On the procedure:
INS-1 832/3 Glp1r^−/− SNAP/FLAG-hGLP1R^WT or ^A316T cells were seeded onto poly-D-lysine–coated black 96-well plates for 24 hours before the assay. Cells were labeled for 30 min with 1 μM SNAP surface cleavable BG-SS-649 probe at 37°C and washed once with HBSS before treatment with GLP-1RA or vehicle for 60, 30, 15, or 5 min at 37°C in complete medium. Cells were then washed with cold HBSS, and subsequent steps were carried out at 4°C. The cell-impermeable reducing agent Mesna {100 mM in alkaline tris-NaCl-EDTA (TNE) buffer [20 mM tris-HCl, 1 mM EDTA, and 150 mM NaCl (pH 8.6)]} or alkaline TNE buffer without Mesna was applied for 5 min to cleave BG-SS-649 probe left at the cell surface and then washed with HBSS. […] Internalized GLP-1R, indicated by cell-associated fluorescence, was analyzed after flat-field correction of fluorescent images using the BaSiC plugin ([96]), segmentation of cell-containing regions from phase contrast images using Phantast ([97]), and fluorescence intensity quantification. The percentage of internalized receptor was calculated as follows F+Me(tx)/F−Me(tx)−F+Me(t0)/F−Me(t0)/1−F+Me(t0)/F−Me(t0) where F+Me and F−Me are mean fluorescence intensities ± Mesna at times tx (5, 15, 30, or 60 min) or t0 (0 min). […]

As to GLP-1(7-36)NH2, the “A316T GLP-1R internalization versus WT” value is “significantly increased”.
